Values joined by “and” are separate entries in the source; they are usually repeats but may differ in a detail not shown here. Equal entries are not always repeated.
Legend:
OGG1 = tested on: OGG1; design: method as in PMID 12592398; settings: cited from earlier work
human OGG1 = human OGG1 (Homo sapiens, UniProt O15527); experiment: Fluorescent steady-state kinetic assay of OGG1 activation (initial rates; screening concentration response)
A549 cells [1] = experiment: OGG1 content by imaging; format: cell-based, human; settings: 0.6 mM PQ, N = 1 in triplicate
A549 cells [2] = experiment: DNA ligase III (LIG3) protein content by imaging; format: cell-based, human; settings: 48 h of PQ at either 0.6 or 1 mM
A549 cells [3] = experiment: ROS production with CM-H2DCFDA (DCF) imaging; format: cell-based, human; settings: for EC50: Homo sapiens
A549 cells [4] = experiment: Nuclear DNA damage by γ-H2AX staining; format: cell-based, human
A549 cells [5] = experiment: Measurement of energy metabolites (ATP, ADP); format: cell-based, human
A549 cells [6] = experiment: DRP1 content by quantitative imaging; format: cell-based, human; settings: 0.6 mM PQ, 48 h
A549 cells [7] = experiment: Mitochondrial ROS with MitoSOX; format: cell-based, human
A549 cells [8] = experiment: Mitochondrial membrane integrity (MitoTracker orange texture analysis); format: cell-based, human; settings: 24 h
A549 cells [9] = experiment: mtDNA damage by long/short chain PCR; format: cell-based, human; settings: PQ 0.3–3 mM
A549 cells [10] = experiment: TOM20 immunofluorescence; format: cell-based, human; settings: 0.3 mM PQ, 48 h
[11] = initial rate analysis, random mechanism

Chain of human OGG1 (O15527 12-345): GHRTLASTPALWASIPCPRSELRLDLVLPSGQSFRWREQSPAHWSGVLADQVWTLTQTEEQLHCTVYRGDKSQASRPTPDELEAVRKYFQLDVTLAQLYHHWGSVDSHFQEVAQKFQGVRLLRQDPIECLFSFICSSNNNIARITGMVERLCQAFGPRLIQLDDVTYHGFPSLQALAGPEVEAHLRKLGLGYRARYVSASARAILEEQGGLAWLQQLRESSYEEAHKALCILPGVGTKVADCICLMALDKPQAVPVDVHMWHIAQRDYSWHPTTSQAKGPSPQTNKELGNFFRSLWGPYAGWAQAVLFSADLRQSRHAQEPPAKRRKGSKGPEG

Nc1nc2nc(N)[nH]c2c(=O)[nH]1 [Compound 8-aminoGua, 8-aminoguanine]
acceleration / activation level of AP lyase activity (OGG1): > 35 fold
substrate turnover (OGG1): 72%

Nc1nc2cc[nH]c2c(=O)[nH]1 [Compound 9-deazaGua, 9-deazaguanine]
β value as percent of catalytic activity of OGG1 in the presence of 8-bromoGua (human OGG1): 50%
OGG1 initial rate relative to that in the presence of 200 μM 8-bromoGua (human OGG1; 200 μM activator, substrate 80 nM): ~ 25%
Km (human OGG1; initial rate analysis with activator and Substrate A varied, OGG1 10 nM): 0.015 ± 0.003 µM
kcat (human OGG1; initial rate analysis with activator and Substrate A varied, OGG1 10 nM, random mechanism fit): 0.006 ± 0.001 s⁻¹ and 0.006 ± 1 s⁻¹
α (coefficient of interaction between activator and substrate) (human OGG1; [11]): 1.3 ± 0.4
β (factor of kcat activation) (human OGG1; [11]): 18 ± 3

C[n+]1ccc(-c2cc[n+](C)cc2)cc1.[Cl-].[Cl-] [Paraquat, N, N′-dimethyl-4,4′-bipyridinium dichloride]
increase of OGG1 content above baseline (A549 cells [1]): 88.3%
decline of LIG3 levels (A549 cells [2]): about 50%
maximum ROS (DCF) over baseline (A549 cells [3]; 0.6 mM, 48 h): 30 fold
maximum ROS (DCF) over baseline (A549 cells [3]; 3 mM, 24 h): 30 fold
EC50 (A549 cells [3]; A549, 24 h): 1600 µM
EC50 (A549 cells [3]; A549, 48 h): 340 µM
rise in γH2AX (nuclear DNA damage) (A549 cells [4]): 2 fold
ATP levels (A549 cells [5]; 24 h with PQ, concentrations not given at the place, listed as PQ): 3.13 ± 0.14 μmol/gm protein and 2.49 ± 0.67 μmol/gm protein and 1.99 ± 0.45 μmol/gm protein
ADP levels (A549 cells [5]; PQ 3 mM, 48 h, time-course experiment): 68.69 ± 1.47 μmol/gm protein
ATP Average (A549 cells [5]; paraquat 0.3 mM alone, 48 h): 2.56 µmols/g protein and 2.83 µmols/g protein and 1.89 µmols/g protein
ATP Average (A549 cells [5]; paraquat 0.6 mM alone, 48 h): 1.43 µmols/g protein and 1.67 µmols/g protein and 1.19 µmols/g protein
ATP Average (A549 cells [5]; paraquat 1 mM alone, 48 h): 1.47 µmols/g protein and 0.92 µmols/g protein and 1.02 µmols/g protein
ADP Average (A549 cells [5]; paraquat 3 mM alone, 48 h): 40.48 µmols/g protein and 41.33 µmols/g protein and 53.45 µmols/g protein
ATP Average (A549 cells [5]; paraquat 3 mM alone, 48 h): 0.96 µmols/g protein and 0.61 µmols/g protein and 0.63 µmols/g protein
ATP Average (A549 cells [5]; paraquat 3 mM alone, 48 h, listed as PQ): 0.63 ± 0.05 µmols/g protein and 0.96 ± 0.10 µmols/g protein and 0.61 ± 0.09 µmols/g protein
decline of DRP1 content compared to control (A549 cells [6]): about 24 ± 0.02%
maximal mitochondrial ROS signal intensity (MitoSOX) (A549 cells [7]; 3 mM): 1.75 fold
EC50 (A549 cells [7]; Homo sapiens, A549, 24 h of exposure): 280 µM
concentration giving maximum effect on mitochondrial membrane integrity (A549 cells [8]): 3000 µM
concentration giving maximal mtDNA damage (A549 cells [9]): 600 µM
TOM20 immunofluorescence increase above baseline (A549 cells [10]): ~25%

Reference: PMC9424235, “Small molecule-mediated allosteric activation of the base excision repair enzyme 8-oxoguanine DNA glycosylase and its impact on mitochondrial function” (Scientific Reports, 2022)
